Reference: PubChem BioAssay AID248 (DTP/NCI, 2004)
Toxic doses and inconclusive results are not listed.

System: L1210 leukemia ip in BDF1 mice, survival T/C
Test: NCI In Vivo Anticancer Drug Screen. Data for tumor model L1210 Leukemia (intraperitoneal) in B6D2F1 (BDF1) mice
Settings: higher = longer survival
How it was run: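 Mice bearing the transplanted tumor received compound or vehicle. Survival of the treated group was divided by that of the vehicle-treated control group to give the ratio.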

[1] = endpoint: mean survival time, dose: 100.0 mg/kg/injection, schedule: Q01DX001 (ip), vehicle: carboxymethylcellulose (CMC)
[2] = endpoint: mean survival time, dose: 200.0 mg/kg/injection, schedule: Q01DX001 (ip), vehicle: carboxymethylcellulose (CMC)
[3] = endpoint: mean survival time, dose: 400.0 mg/kg/injection, schedule: Q01DX001 (ip), vehicle: carboxymethylcellulose (CMC)
[4] = endpoint: mean survival time, dose: 100.0 mg/kg/injection, schedule: Q01DX001 (ip), vehicle: saline
[5] = endpoint: mean survival time, dose: 200.0 mg/kg/injection, schedule: Q01DX001 (ip), vehicle: saline
[6] = endpoint: mean survival time, dose: 400.0 mg/kg/injection, schedule: Q01DX001 (ip), vehicle: saline
[7] = endpoint: mean survival time, dose: 100.0 mg/kg/injection, schedule: Q01DX009 (ip), vehicle: Klucel (hydroxypropylcellulose) (HPC)
[8] = endpoint: mean survival time, dose: 200.0 mg/kg/injection, schedule: Q01DX009 (ip), vehicle: Klucel (hydroxypropylcellulose) (HPC)
[9] = endpoint: mean survival time, dose: 400.0 mg/kg/injection, schedule: Q01DX009 (ip), vehicle: Klucel (hydroxypropylcellulose) (HPC)
[10] = endpoint: mean survival time, dose: 100.0 mg/kg/injection, schedule: Q01DX009 (ip), vehicle: other
[11] = endpoint: mean survival time, dose: 200.0 mg/kg/injection, schedule: Q01DX009 (ip), vehicle: other
[12] = endpoint: mean survival time, dose: 400.0 mg/kg/injection, schedule: Q01DX009 (ip), vehicle: other

Structure (SMILES): CN(C)/C=N\c1ncnc2c1c(C#N)cn2C1OC(CO)C(O)C1O (centres undefined)
- T/C (endpoint: mean survival time, dose: 6.25 mg/kg/injection, schedule: Q01DX009 (ip), vehicle: saline): 92 % of control
- T/C (endpoint: mean survival time, dose: 12.5 mg/kg/injection, schedule: Q01DX005 (ip), vehicle: saline): 109 % of control
- T/C (endpoint: mean survival time, dose: 12.5 mg/kg/injection, schedule: Q01DX009 (ip), vehicle: saline): 115 % of control
- T/C (endpoint: mean survival time, dose: 25.0 mg/kg/injection, schedule: Q01DX005 (ip), vehicle: saline): 101 % of control
- T/C (endpoint: mean survival time, dose: 25.0 mg/kg/injection, schedule: Q01DX009 (ip), vehicle: saline): 117 % of control

Structure (SMILES): CC1=NNC(=O)C1Br (centres undefined)
- T/C [1]: 105 % of control
- T/C [2]: 102 % of control
- T/C [3]: 100 % of control

Structure (SMILES): S=C1SC2(CCCCCC2)NC2=C1CCCCC2
- T/C (endpoint: mean survival time, dose: 100.0 mg/kg/injection, schedule: Q04DX002 (ip), vehicle: saline with Tween-80): 103 % of control
- T/C (endpoint: mean survival time, dose: 200.0 mg/kg/injection, schedule: Q04DX002 (ip), vehicle: saline with Tween-80): 89 % of control
- T/C (endpoint: mean survival time, dose: 400.0 mg/kg/injection, schedule: Q04DX002 (ip), vehicle: saline with Tween-80): 89 % of control

Structure (SMILES): CCCCOC(=O)c1ccc(C)s1
- T/C [1]: 95 % of control
- T/C [2]: 101 % of control
- T/C [3]: 95 % of control

Structure (SMILES): C(=N\N1CCN(/N=C/c2ccc(OCc3ccccc3)cc2)CC1)/c1ccc(OCc2ccccc2)cc1
- T/C [4]: 102 % of control
- T/C [5]: 96 % of control
- T/C [6]: 93 % of control

Structure (SMILES): CCOC(=O)NP(=O)(Nc1ccccc1)Nc1ccccc1
- T/C (endpoint: mean survival time, dose: 50.0 mg/kg/injection, schedule: Q01DX001 (ip), vehicle: alcohol): 104 % of control
- T/C (endpoint: mean survival time, dose: 100.0 mg/kg/injection, schedule: Q01DX001 (ip), vehicle: alcohol): 98 % of control
- T/C (endpoint: mean survival time, dose: 200.0 mg/kg/injection, schedule: Q01DX001 (ip), vehicle: alcohol): 102 % of control
- T/C (endpoint: mean survival time, dose: 400.0 mg/kg/injection, schedule: Q01DX001 (ip), vehicle: alcohol): 104 % of control

Structure (SMILES): CC(C)(Br)C1CC(=O)C(C)(Br)C(Br)C1 (centres undefined)
- T/C [4]: 98 % of control
- T/C [5]: 101 % of control
- T/C [6]: 101 % of control

Structure (SMILES): O=C(Cl)C1CCC1C(=O)Cl (centres undefined)
- T/C (endpoint: mean survival time, dose: 75.0 mg/kg/injection, schedule: Q01DX001 (ip), vehicle: carboxymethylcellulose (CMC)): 102 % of control
- T/C (endpoint: mean survival time, dose: 150.0 mg/kg/injection, schedule: Q01DX001 (ip), vehicle: carboxymethylcellulose (CMC)): 91 % of control

Structure (SMILES): OCC1OC(n2cnc3cncnc32)CC1O (centres undefined)
- T/C [4]: 103 % of control
- T/C [5]: 97 % of control
- T/C [6]: 107 % of control

Structure (SMILES): CN=C(NCCCOC)c1ccc(NC(=O)Nc2ccc(NC(=O)Nc3ccc(C(=NC)NCCCOC)cc3)cc2)cc1
- T/C (endpoint: mean survival time, dose: 1.87 mg/kg/injection, schedule: Q01DX Z (ip), vehicle: carboxymethylcellulose (CMC)): 107 % of control
- T/C (endpoint: mean survival time, dose: 3.75 mg/kg/injection, schedule: Q01DX Z (ip), vehicle: carboxymethylcellulose (CMC)): 96 % of control
- T/C (endpoint: mean survival time, dose: 7.5 mg/kg/injection, schedule: Q01DX Z (ip), vehicle: carboxymethylcellulose (CMC)): 104 % of control
- T/C (endpoint: mean survival time, dose: 15.0 mg/kg/injection, schedule: Q01DX Z (ip), vehicle: carboxymethylcellulose (CMC)): 102 % of control

Structure (SMILES): CCC1CCC(NC(C)=O)CC1 (centres undefined)
- T/C (endpoint: mean survival time, dose: 25.0 mg/kg/injection, schedule: Q01DX001 (ip), vehicle: saline with Tween-80): 96 % of control
- T/C (endpoint: mean survival time, dose: 50.0 mg/kg/injection, schedule: Q01DX001 (ip), vehicle: saline with Tween-80): 108 % of control
- T/C (endpoint: mean survival time, dose: 100.0 mg/kg/injection, schedule: Q01DX001 (ip), vehicle: saline with Tween-80): 94 % of control

Structure (SMILES): Cc1cccc(NC(=O)c2cccc(F)c2)c1C
- T/C [7]: 105 % of control
- T/C [8]: 100 % of control
- T/C [9]: 94 % of control

Structure (SMILES): CCOC(=O)N1C2CC=CCC1C1(c3ccccc3)OC2(c2ccccc2)c2ccccc21
- T/C (endpoint: mean survival time, dose: 100.0 mg/kg/injection, schedule: Q04DX002 (ip), vehicle: DMSO): 96 % of control

Structure (SMILES): O=c1c[n+](Cc2ccc(Cl)cc2)[nH]o1
- T/C (endpoint: mean survival time, dose: 100.0 mg/kg/injection, schedule: Q01DX Z (ip), vehicle: saline): 100 % of control
- T/C (endpoint: mean survival time, dose: 200.0 mg/kg/injection, schedule: Q01DX Z (ip), vehicle: saline): 100 % of control

Structure (SMILES): Cc1cc(-c2ccc(NC(=O)N(C)CCC#N)c(C)c2)ccc1NC(=O)N(C)CCC#N
- T/C [10]: 88 % of control
- T/C [11]: 97 % of control
- T/C [12]: 100 % of control

Structure (SMILES): Cc1[nH]c2c(O)ccc(O)c2c1C
- T/C [4]: 106 % of control
- T/C [5]: 97 % of control
- T/C [6]: 106 % of control

Structure (SMILES): COc1ccc(/C=C(\CCCOC(C)=O)[N+](=O)[O-])cc1
- T/C [4]: 100 % of control
- T/C [5]: 111 % of control
- T/C [6]: 113 % of control

Structure (SMILES): O=C(COc1cc(Cl)c(Cl)cc1Cl)Nc1ccc(-c2ccccc2)cc1
- T/C (endpoint: mean survival time, dose: 75.0 mg/kg/injection, schedule: Q04DX002 (ip), vehicle: Klucel (hydroxypropylcellulose) (HPC)): 95 % of control
- T/C (endpoint: mean survival time, dose: 150.0 mg/kg/injection, schedule: Q04DX002 (ip), vehicle: Klucel (hydroxypropylcellulose) (HPC)): 103 % of control
- T/C (endpoint: mean survival time, dose: 300.0 mg/kg/injection, schedule: Q04DX002 (ip), vehicle: Klucel (hydroxypropylcellulose) (HPC)): 98 % of control

Structure (SMILES): CN(Cc1cnc2nc(N)nc(N)c2n1)c1ccc(C(=O)NC(CCC(=O)O)C(=O)O)cc1F (centres undefined)
- T/C (endpoint: median survival time, dose: 1.25 mg/kg/injection, schedule: Q01DX009 (ip), vehicle: other): 150 % of control
- T/C (endpoint: median survival time, dose: 2.5 mg/kg/injection, schedule: Q01DX009 (ip), vehicle: other): 161 % of control

Structure (SMILES): CCOC(CN1CCCCC1)c1ccccc1 (centres undefined)
- T/C (endpoint: mean survival time, dose: 12.5 mg/kg/injection, schedule: Q01DX009 (ip), vehicle: saline with Tween-80): 98 % of control
- T/C (endpoint: mean survival time, dose: 25.0 mg/kg/injection, schedule: Q01DX009 (ip), vehicle: saline with Tween-80): 102 % of control
- T/C (endpoint: mean survival time, dose: 50.0 mg/kg/injection, schedule: Q01DX009 (ip), vehicle: saline with Tween-80): 100 % of control

Structure (SMILES): CC1=NN=S(CC2=C(C(=O)O)N3C(=O)C(NC(=O)C[n+]4cc(=O)o[nH]4)C3SC2)S1 (centres undefined)
- T/C (endpoint: mean survival time, dose: 50.0 mg/kg/injection, schedule: Q04DX002 (ip), vehicle: saline): 118 % of control
- T/C (endpoint: mean survival time, dose: 100.0 mg/kg/injection, schedule: Q04DX002 (ip), vehicle: saline): 103 % of control
- T/C (endpoint: mean survival time, dose: 200.0 mg/kg/injection, schedule: Q04DX002 (ip), vehicle: saline): 114 % of control

Structure (SMILES): CC(Br)C(Br)(C(=O)O)c1ccccc1 (centres undefined)
- T/C (endpoint: mean survival time, dose: 100.0 mg/kg/injection, schedule: Q04DX003 (ip), vehicle: other): 91 % of control
- T/C (endpoint: mean survival time, dose: 200.0 mg/kg/injection, schedule: Q04DX003 (ip), vehicle: other): 95 % of control
- T/C (endpoint: mean survival time, dose: 400.0 mg/kg/injection, schedule: Q04DX003 (ip), vehicle: other): 96 % of control

Structure (SMILES): Clc1ccccc1C[P+](c1ccccc1)(c1ccccc1)c1ccccc1
- T/C (endpoint: mean survival time, dose: 12.5 mg/kg/injection, schedule: Q01DX001 (ip), vehicle: saline): 92 % of control
- T/C (endpoint: mean survival time, dose: 25.0 mg/kg/injection, schedule: Q01DX001 (ip), vehicle: saline): 106 % of control
- T/C (endpoint: mean survival time, dose: 50.0 mg/kg/injection, schedule: Q01DX001 (ip), vehicle: saline): 100 % of control

Structure (SMILES): Cc1ccc(Cl)c(NC(=O)Nc2cccc(F)c2)c1
- T/C [7]: 94 % of control
- T/C [8]: 87 % of control
- T/C [9]: 89 % of control

Structure (SMILES): COC1OC2COC(c3ccccc3)OC2C(N=[N+]=[N-])C1O (centres undefined)
- T/C (endpoint: mean survival time, dose: 100.0 mg/kg/injection, schedule: Q01DX001 (ip), vehicle: gum acacia): 100 % of control
- T/C (endpoint: mean survival time, dose: 200.0 mg/kg/injection, schedule: Q01DX001 (ip), vehicle: gum acacia): 97 % of control
- T/C (endpoint: mean survival time, dose: 400.0 mg/kg/injection, schedule: Q01DX001 (ip), vehicle: gum acacia): 92 % of control

Structure (SMILES): O=C1c2ccccc2C(=O)c2c1ccc1c2CCCC1
- T/C (endpoint: mean survival time, dose: 50.0 mg/kg/injection, schedule: Q01DX009 (ip), vehicle: Klucel (hydroxypropylcellulose) (HPC)): 91 % of control
- T/C [7]: 94 % of control
- T/C [8]: 100 % of control

Structure (SMILES): O=S1(=O)CC(c2ccc(Br)cc2)Nc2ccccc21 (centres undefined)
- T/C [4]: 98 % of control
- T/C (endpoint: mean survival time, dose: 100.0 mg/kg/injection, schedule: Q04DX003 (ip), vehicle: acetone): 97 % of control
- T/C [5]: 101 % of control
- T/C (endpoint: mean survival time, dose: 200.0 mg/kg/injection, schedule: Q04DX003 (ip), vehicle: acetone): 100 % of control
- T/C [6]: 98 % of control
- T/C (endpoint: mean survival time, dose: 400.0 mg/kg/injection, schedule: Q04DX003 (ip), vehicle: acetone): 100 % of control

Structure (SMILES): C=C(C)[C@@H]1CC[C@]2(C(=O)OC)CC[C@]3(C)[C@H](CC[C@@H]4[C@@]5(C)CC[C@H](O)C(C)(C)[C@@H]5CC[C@]43C)[C@@H]12
- T/C (endpoint: mean survival time, dose: 100.0 mg/kg/injection, schedule: Q04DX003 (ip), vehicle: alcohol): 103 % of control
- T/C (endpoint: mean survival time, dose: 200.0 mg/kg/injection, schedule: Q04DX003 (ip), vehicle: alcohol): 100 % of control
- T/C (endpoint: mean survival time, dose: 400.0 mg/kg/injection, schedule: Q04DX003 (ip), vehicle: alcohol): 91 % of control

Structure (SMILES): COc1ccc(OC(=O)Nc2cccc(C(C)=O)c2)cc1
- T/C [10]: 106 % of control
- T/C [11]: 89 % of control
- T/C [12]: 101 % of control
